This note sets out measurements from patent US11298337B2, “Parthenolide and its derivative for use in the treatment of axonal damage” (RUHR-UNIVERSITÄT BOCHUM, priority 2015, dated 2022).

Experiment [1] concerns dissociated DRG neurons from adult wild type mice. Put plainly: Axon growth of dissociated adult DRG neurons in culture. To be noted: adult wt DRG neurons, 2 days in culture.
Protocol: DRGs (T8-L6) were harvested, incubated in 0.25% trypsin/EDTA (GE Healthcare, Chalfont St Giles, UK) and 0.3% collagenase type IA (Sigma, St. Louis, US-Mo.) in DMEM (Life Technologies, Carlsbad, US-Calif.) at 37° C. and 5% CO2 for 45 min and mechanically dissociated. Cells were resuspended in DMEM containing 10% fetal bovine serum (GE Healthcare) penicillin/streptomycin (500 U/ml; Merck Millipore, Billerica, US-MA) and 5-fluoro-2′-desoxyuridine (100 nM; Sigma). Cells were cultured on poly-D-lysine (PDL, 0.1 mg/ml, molecular weight <300,000 kDa; Sigma) and laminin (20 μg/ml; Sigma) coated 96 well plates (Nunc, Germany) at 37° C. and 5% CO2.
The effect of the tubulin carboxypeptidase (TCP) inhibitor parthenolide on axon growth of mature neurons was determined in dissociated DRG neurons from adult wild type mice as described above.
DRGs (T8-L6) were harvested, incubated in 0.25% trypsin/EDTA (GE Healthcare, Chalfont St Giles, UK) and 0.3% collagenase type IA (Sigma, St. Louis, US-Mo.) in DMEM (Life Technologies, Carlsbad, US-Calif.) at 37° C. and 5% CO2 for 45 min and mechanically dissociated. […]
Axonal growth was determined upon 48 h incubation by fixation in 4% PFA (Sigma) and immunocytochemical staining with antibodies against NeuN (1:2,000; Abcam, ab177487, Cambridge, UK) and βIII-tubulin (1:2,000; Covance, Princeton, US-N.J.). […]
Experiment [2] has as its system dissociated DRG neurons from adult wild type mice and GSK3α/GSK3β double knock-in mice. Put plainly: Axon growth of DRG neurons with SB216763 or nocodazole (modulation of microtubule dynamics). The conditions noted are these: 2 days in culture.
Protocol: Dorsal root ganglion (DRG) neurons were isolated from adult wild type (wt) and GSK3α/GSK3β mice as described in Gobrecht et al., Nature communications. […] DRGs (T8-L6) were harvested, incubated in 0.25% trypsin/EDTA (GE Healthcare, Chalfont St Giles, UK) and 0.3% collagenase type IA (Sigma, St. Louis, US-Mo.) in DMEM (Life Technologies, Carlsbad, US-Calif.) at 37° C. and 5% CO2 for 45 min and mechanically dissociated. Cells were resuspended in DMEM containing 10% fetal bovine serum (GE Healthcare) penicillin/streptomycin (500 U/ml; Merck Millipore, Billerica, US-MA) and 5-fluoro-2′-desoxyuridine (100 nM; Sigma). Cells were cultured on poly-D-lysine (PDL, 0.1 mg/ml, molecular weight <300,000 kDa; Sigma) and laminin (20 μg/ml; Sigma) coated 96 well plates (Nunc, Germany) at 37° C. and 5% CO2.

Consider `C=C(C(=O)O[C@H]1C/C(C)=C/CC/C(CO)=C/C2OC(=O)C(=C)[C@@H]21)C(O)CO` (stereo in doubt) [cnicin, [(1R,2S,4E,8Z,10S)-8-(hydroxymethyl)-4-methyl-13-methylidene-12-oxo-11-oxabicyclo[8.3.0]trideca-4,8-dien-2-yl] (3S)-3,4-dihydroxy-2-methylidene-butanoate], for which, in experiment [1] (0.1-100 nM, normalized to vehicle), the axon growth entry is recorded as “significant, but less pronounced axon growth promotion”. Further, the “concentration with strongest effects on axon growth” value in experiment [1] is on record as 0.5 nM. With `COC(=O)Nc1nc2ccc(C(=O)c3cccs3)cc2[nH]1` [nocodazole], in experiment [2] (10 nM nocodazole, alone or with 1 nM parthenolide), the “axon growth, effect on GSK3α^S/A/GSK3β^S/A and parthenolide promoted growth” value was “abrogated the beneficial effects of both GSK3α^S/A/GSK3β^S/A and parthenolide to similar extent”. Turning to `Cn1cc(C2=C(c3ccc(Cl)cc3Cl)C(=O)NC2=O)c2ccccc21` [SB216763], the “axon growth promoted by GSK3α^S/A/GSK3β^S/A” value in experiment [2] (5 μM SB216763, double knock-in DRG neurons) is given as “efficiently blocked GSK3α^S/A/GSK3β^S/A promoted axon growth”.
